Test systems include A498 renal; A549 NSCLC; CCRF-CEM leukemia; COLO 205 colon; EKVX NSCLC; HCC-2998 colon; HL-60(TB) leukemia; HT29 colon; MCF7 breast; MDA-MB-435; MDA-N; NCI-H23 lung; OVCAR-8 ovarian; RPMI-8226 leukemia; SK-MEL-5 melanoma; SNB-19 CNS; SNB-75 CNS; SR leukemia; HCT-15 colon; MOLT-4 leukemia.
Experiment in all cases: growth of human tumour cells (NCI), 48 h

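Step 1: Grow cells in 96-well plates. Step 2: Expose to compound for 48 hours at 5 concentrations. Step 3: Interpolate endpoints linearly; if unreached, use highest concentration. TGI is the concentration that stops growth completely.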

Turning to `CCOC(=O)Cc1c(C(=O)OCC)[n+](=O)c2cc(Cl)c(Cl)cc2n1[O-]`, the TGI with A498 renal was 6.14 µM; in the assay on A549 NSCLC, 3.72 µM; in the assay with CCRF-CEM leukemia, 6.29 µM; in the assay on COLO 205 colon, 3.27 µM; in the assay on EKVX NSCLC, 11.4 µM; in the assay on HCC-2998 colon, 5.1 µM. Besides, the TGI in the assay on HL-60(TB) leukemia is 5.74 µM; in the assay with HT29 colon, 5.2 µM; in the assay with MCF7 breast, 13.3 µM; with MDA-MB-435, 9.03 µM; with MDA-N it was 11.9 µM; with NCI-H23 lung it was 5.49 µM. Moreover, the TGI came to 6.2 µM in the assay with OVCAR-8 ovarian; 2.18 µM in the assay on RPMI-8226 leukemia; 3.04 µM in the assay with SK-MEL-5 melanoma; 11.9 µM with SNB-19 CNS; 4.63 µM in the assay on SNB-75 CNS; 2.11 µM in the assay on SR leukemia.

With `CCOC(=O)[C@@]12C[C@](/C=C/OC)(O[Si](C)(C)C)[C@@]13c1cc(OC)c(OC)cc1CCN3C(=O)C2=O`, the TGI in the assay with A498 renal, in the assay with A549 NSCLC, with CCRF-CEM leukemia, in the assay with COLO 205 colon, in the assay on EKVX NSCLC and in the assay with HCT-15 colon was over 100 µM throughout. The TGI in the assay with HT29 colon, with MCF7 breast, in the assay with MDA-MB-435, in the assay with MDA-N, with MOLT-4 leukemia and with NCI-H23 lung was over 100 µM in each case. For the same compound, the TGI in the assay on OVCAR-8 ovarian, with RPMI-8226 leukemia, in the assay with SK-MEL-5 melanoma, in the assay with SNB-19 CNS, in the assay with SNB-75 CNS and in the assay on SR leukemia was over 100 µM in each case.

On to `CC(C)(C)OC(=O)Cn1ncn(NC(=O)Cc2ccccc2)c1=S`, for which the TGI in the assay on A498 renal, in the assay with A549 NSCLC, in the assay with CCRF-CEM leukemia, in the assay on COLO 205 colon, in the assay with EKVX NSCLC and with HCC-2998 colon was over 10 µM in each case. Further, the TGI in the assay on HCT-15 colon, with HT29 colon, with MCF7 breast, in the assay with MDA-MB-435, in the assay on MDA-N and in the assay on MOLT-4 leukemia was over 10 µM throughout. Further, the TGI in the assay on NCI-H23 lung, with OVCAR-8 ovarian, in the assay with SK-MEL-5 melanoma, in the assay with SNB-19 CNS, in the assay with SNB-75 CNS and with SR leukemia was over 10 µM in each case.

Regarding `CN(CCN)[C@H](CSSC[C@@H](c1ccccc1O)N(C)CCN)c1ccccc1O`, the TGI in the assay with A498 renal is 39.2 µM; in the assay on A549 NSCLC it was 23.9 µM; in the assay with CCRF-CEM leukemia it was 10.5 µM; in the assay on COLO 205 colon it was over 53.6 µM; in the assay on EKVX NSCLC, 23.9 µM; in the assay with HCC-2998 colon, 25.6 µM. Further, the TGI in the assay on HCT-15 colon was 18.6 µM; in the assay with HT29 colon, 21.3 µM; in the assay with MCF7 breast, over 52.7 µM; in the assay on MDA-MB-435, 42.8 µM; in the assay with MDA-N, 24.6 µM; in the assay on MOLT-4 leukemia, 23 µM. In addition, the TGI in the assay with NCI-H23 lung came out at 28.5 µM; in the assay with OVCAR-8 ovarian, 47.6 µM; in the assay with RPMI-8226 leukemia it was 43.2 µM; with SK-MEL-5 melanoma, 24.4 µM; with SNB-19 CNS, 26.2 µM; with SNB-75 CNS it was 29 µM. In addition, in the assay on SR leukemia, the TGI is 11.5 µM.

As for `CC(C)c1cc(=O)[nH]c2cc(N)ccc12`, the TGI with A498 renal, in the assay with A549 NSCLC, in the assay with CCRF-CEM leukemia, in the assay on COLO 205 colon, with EKVX NSCLC and with HCC-2998 colon was over 100 µM in each case. Besides, the TGI in the assay on HCT-15 colon, in the assay with HT29 colon, in the assay on MCF7 breast, with MDA-MB-435, with MDA-N and with MOLT-4 leukemia was over 100 µM throughout. Further, the TGI with NCI-H23 lung, in the assay on OVCAR-8 ovarian, in the assay with RPMI-8226 leukemia, in the assay on SK-MEL-5 melanoma, with SNB-19 CNS and with SNB-75 CNS was over 100 µM each time. The TGI with SR leukemia was over 100 µM.

As for `O=C1c2cc3c(cc2NC(c2ccccc2F)C1O)OCO3` (stereo not given), the TGI in the assay with A498 renal is 58.1 µM; in the assay on A549 NSCLC, over 63.1 µM; in the assay on CCRF-CEM leukemia, 97.7 µM; in the assay on COLO 205 colon, over 39.8 µM; in the assay with EKVX NSCLC, over 70.8 µM; in the assay on HCC-2998 colon it was over 75.1 µM. For the same compound, the TGI is over 100 µM in the assay with HCT-15 colon; 43.3 µM with HT29 colon; over 100 µM in the assay on MCF7 breast; 13.6 µM in the assay on MDA-MB-435; 8.29 µM in the assay on MDA-N; over 83.9 µM in the assay on MOLT-4 leukemia. For the same compound, the TGI with NCI-H23 lung is over 91.5 µM; with OVCAR-8 ovarian, 71.9 µM; with RPMI-8226 leukemia it was over 100 µM; with SK-MEL-5 melanoma, over 100 µM; with SNB-19 CNS, over 56.1 µM; in the assay with SNB-75 CNS, 56.9 µM. The same compound yielded a TGI in the assay on SR leukemia of over 37.9 µM.

In the case of `O=C(/C=C/c1ccc(-c2ccccc2)cc1)NCc1ccc(C(=O)NCCc2ccccc2)cc1`, the TGI with A498 renal is over 100 µM; in the assay with A549 NSCLC it was over 100 µM; with CCRF-CEM leukemia, 39.1 µM; in the assay with COLO 205 colon, over 100 µM; in the assay on EKVX NSCLC, over 100 µM; with HCC-2998 colon, over 100 µM. Further, the TGI in the assay with HCT-15 colon, in the assay with HT29 colon, in the assay with MCF7 breast, in the assay on MDA-MB-435, with MDA-N and with MOLT-4 leukemia was over 100 µM throughout. The TGI with NCI-H23 lung, in the assay on OVCAR-8 ovarian, with RPMI-8226 leukemia, in the assay with SK-MEL-5 melanoma, in the assay with SNB-19 CNS and in the assay with SNB-75 CNS was over 100 µM in each case. In addition, the TGI with SR leukemia was over 100 µM.

The values are drawn from PubChem BioAssay (NCI).
